Test results published in paper PMC8400955 (Pharmaceuticals, 2021).

Assays:
[1] = Stability in incubation medium only; assay type: in vitro ADME; conditions: 1 μM
Description: Hepatocytes of humans (#X008001), dogs (#M00205), rats (#M00005), and mice (#M005052) were purchased from BioIVT, NY, USA. Monkey hepatocytes were procured from RILD, Shanghai, China. The metabolic stability of ZB716 in human, monkey, dog, rat and mouse hepatocytes was investigated by incubating ZB716 with human, monkey, dog, rat, and mouse hepatocytes (0.5 × 10^6 cells/mL), or with incubation medium only.
parent disappearance vs. incubation time curve.
Scaled-up Clint = kV/N × Scaling Factor
metabolite formed during the reaction.

[2] = target: CYP2D6 (Homo sapiens, UniProt P10635); experiment: CYP inhibition in human liver microsomes, CYP2D6; assay type: in vitro ADME; conditions: HLM, marker substrate Dextromethorphan
Sequence of CYP2D6 (P10635 whole entry): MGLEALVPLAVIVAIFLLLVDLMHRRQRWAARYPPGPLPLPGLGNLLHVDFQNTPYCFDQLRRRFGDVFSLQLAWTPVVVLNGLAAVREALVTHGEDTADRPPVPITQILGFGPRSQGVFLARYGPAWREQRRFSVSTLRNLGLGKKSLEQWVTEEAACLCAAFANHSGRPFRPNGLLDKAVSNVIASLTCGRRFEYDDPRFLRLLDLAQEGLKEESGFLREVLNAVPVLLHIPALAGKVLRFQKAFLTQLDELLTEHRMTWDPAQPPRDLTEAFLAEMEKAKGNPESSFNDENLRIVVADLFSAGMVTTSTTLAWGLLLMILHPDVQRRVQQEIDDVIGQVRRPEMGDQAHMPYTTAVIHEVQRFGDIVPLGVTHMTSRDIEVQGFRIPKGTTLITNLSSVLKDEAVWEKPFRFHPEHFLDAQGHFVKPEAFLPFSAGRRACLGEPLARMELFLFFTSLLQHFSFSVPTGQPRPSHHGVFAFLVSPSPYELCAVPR
Description: . The inhibition of CYP2B6 and 3A4 (when midazolam was used as the substrate) by ZB716 was not observed. The inhibitory potential of ZB716 on human CYP enzyme activities appears relatively low.
The final concentrations of ZB716 in the incubation system were 0, 0.05, 0.15, 0.5, 1.5, 5, and 15 µM (final organic solvent concentration ≤ 1%). […] . […] The concentrations of the isoform-specific metabolites derived from marker substrates were measured by UPLC–MS/MS. The IC50 values were calculated from the percentages of the rate of the metabolite formation relative to non-inhibited controls vs. the concentrations of ZB716 or positive control inhibitors. All incubations were performed in triplicate. The mean of the enzyme activity (% of non-inhibited control) for each concentration was plotted against the log inhibitor concentration, and fitted to an IC50 curve.

[3] = 4-week repeat-dose toxicity/TK study in rats; assay type: in vivo, Sprague Dawley rats; conditions: for AUC(0-t) / Cmax / Tmax: Sprague Dawley (Crl: CD (SD)), rat, plasma, po
Description: The PK of ZB716 was investigated in a 4-week repeat-dose toxicity study in rats. Groups of Sprague Dawley rats (n = 10/sex/group; n = 3/sex/TK group) were orally administered ZB716 (5% EtOH, 15% PG, 5% Solutol, and 75% of 40% HP-β-CD in DI water) at dose levels of 25, 100, and 400 mg/kg/day for 4 weeks. The plasma concentration of ZB716 was measured at various times through to 24 h post-dose on days 1 and 28.
Four-to-six-week-old Sprague Dawley rats (Crl: CD (SD)) (SPF/VAF) were purchased from Beijing Vital River Laboratory Animal Technology, Co. Ltd.). Six-month-old beagle dogs were purchased from Beijing Marshall Biotechnology Co. Ltd. Animals were quarantined/acclimated for 2–6 weeks prior to dose initiation. Both Sprague Dawley rats and beagle dogs were given oral administration of ZB716 (20% PG, 5% Solutol, and 75% of 40% HP-β-CD in water) at different dose levels. After treatment with the test articles, whole blood was collected from each study animal by puncture of the tail vein (0.4 mL of whole blood from rats) and/or the peripheral vein (0.6 mL of whole blood from dogs) into tubes containing K2EDTA at each timepoint: pre-dose, and 0.5, 1, 2, 4, 8, and 24 h post-dose. The plasma samples were divided into 2 aliquots (approximately equal in volume) and stored frozen at −75 ± 15 °C within 2 h of the collection until analysis at Pharmaron, China.
The stock solution of ZB716 (5.0 mg/mL) and ZB716-d6 (1 mg/mL) in ACN:DI Water = 1:1 was prepared and stored at −20 ± 5 °C. The desired serial concentrations of working reference analyte solutions were achieved by diluting a stock analyte solution with 50% acetonitrile (0.1% formic acid) in water solution. The bioanalytical LC–MS/MS method was validated for quantitative determination of ZB716 in Sprague Dawley rat plasma and beagle dog plasma, with acceptable selectivity, sensitivity, calibration curve, precision, and accuracy. This method is applicable for the determination of ZB716 in Sprague Dawley rat plasma and beagle dog plasma, with a lower limit of quantification of 20.0 ng/mL, and an upper limit of quantification of 10,000 ng/mL.
Five microliters of diluted supernatant was injected into the LC–MS/MS system (Shimadzu LC30AD HPLC system with a SynergiTM 4 μm Fusion-RP 80 Å (50 × 2 mm) column using gradient elution and a Triple Quad 5500 mass spectrometer) for quantitative analysis. The mobile phases used were 0.1% formic acid in deionized water and 0.1% formic acid in acetonitrile. The pharmacokinetic parameters T1/2 (the biological half-life), Cmax (maximal concentration), Tmax (time at which Cmax is observed), and AUC (area under the plasma concentration–time curve) were calculated from the plasma concentration versus time data using WinNonlin (Phoenix^TM, version 8.1, Mountain View, CA, USA). All PK studies were conducted by Pharmaron in Beijing, China.

[4] = female, 25 mg/kg/day, day 1, PO 25 mg/kg/day, Female
[5] = female, 25 mg/kg/day, day 28, PO 25 mg/kg/day, Female
[6] = female, 100 mg/kg/day, day 1, PO 100 mg/kg/day, Female
[7] = female, 100 mg/kg/day, day 28, PO 100 mg/kg/day, Female
[8] = female, 400 mg/kg/day, day 1, PO 400 mg/kg/day, Female
[9] = female, 400 mg/kg/day, day 28, PO 400 mg/kg/day, Female
[10] = male, 25 mg/kg/day, day 1, PO 25 mg/kg/day, Male
[11] = male, 25 mg/kg/day, day 28, PO 25 mg/kg/day, Male
[12] = male, 100 mg/kg/day, day 1, PO 100 mg/kg/day, Male
[13] = male, 100 mg/kg/day, day 28, PO 100 mg/kg/day, Male
[14] = male, 400 mg/kg/day, day 1, PO 400 mg/kg/day, Male
[15] = male, 400 mg/kg/day, day 28, PO 400 mg/kg/day, Male

For `C[C@]12CC[C@@H]3c4ccc(B(O)O)cc4C[C@@H](CCCCCCCCC[S+]([O-])CCCC(F)(F)C(F)(F)F)[C@H]3[C@@H]1CC[C@@H]2O` (stereo partly shown) [ZB716, fulvestrant-3-boronic acid], the “Estimated In Vitro t1/2” value [1] was “∞”, the “Remaining at 120 min” value [1] was 100% and the IC50 [2] was 12.5 µM. The “test-article-related mortality or moribundity” value ([3]; PO 25, 100, 400 mg/kg/day for 4 weeks) was “no test-article-related mortality or moribundity”, the AUC(0-t) [3, 4] was 7700 ng·h/mL and the Cmax [3, 4] was 1310 ng/mL. It also gave a Tmax [3, 4] of 1 h, an AUC(0-t) [3, 5] of 8040 ng·h/mL and a Cmax [3, 5] of 1770 ng/mL. For the same molecule, the Tmax [3, 5] was 1 h, the AUC(0-t) [3, 6] was 42200 ng·h/mL and the Cmax [3, 6] was 3200 ng/mL. It also gave a Tmax [3, 6] of 1 h, an AUC(0-t) [3, 7] of 24500 ng·h/mL and a Cmax [3, 7] of 3850 ng/mL. For the same molecule, the Tmax [3, 7] was 1 h, the AUC(0-t) [3, 8] was 121000 ng·h/mL and the Cmax [3, 8] was 11900 ng/mL. The Tmax [3, 8] was 2 h, the AUC(0-t) [3, 9] was 51800 ng·h/mL and the Cmax [3, 9] was 4850 ng/mL. The Tmax [3, 9] was 2 h, the AUC(0-t) [3, 10] was 5400 ng·h/mL and the Cmax [3, 10] was 1040 ng/mL. The Tmax [3, 10] was 0.5 h, the AUC(0-t) [3, 11] was 4750 ng·h/mL and the Cmax [3, 11] was 1310 ng/mL. It also gave a Tmax [3, 11] of 0.5 h, an AUC(0-t) [3, 12] of 15700 ng·h/mL and a Cmax [3, 12] of 1870 ng/mL. For the same molecule, the Tmax [3, 12] was 1 h, the AUC(0-t) [3, 13] was 20100 ng·h/mL and the Cmax [3, 13] was 2840 ng/mL. The Tmax [3, 13] was 0.5 h, the AUC(0-t) [3, 14] was 52400 ng·h/mL and the Cmax [3, 14] was 3400 ng/mL. For the same molecule, the Tmax [3, 14] was 1 h, the AUC(0-t) [3, 15] was 50700 ng·h/mL and the Cmax [3, 15] was 4060 ng/mL. It also gave a Tmax [3, 15] of 2 h.
